Laboratory results from patent publication EP3262942A1, “SELENODIARYLS FOR USE AS MICROBICIDE OR AS MEDICINE” (Evonik Degussa GmbH, priority 2016, dated 2018).

Experiments:
[1] = test system: Setaria italica; assay: Crop plant growth test, seeds on filter discs, 4 days, visual evaluation; type: in vivo
Procedure: (§1) Testsubstanzen und Kontrollen werden auf Filterrondellen in Mikrotiterplatten (48 well) vorgelegt und das verwendete Lösungsmittel (DMSO) über Lyophilisation entfernt. Anschließend werden ca. 12 Samen pro Vertiefung (Setaria italical Lepidium sativum) zugeben, mit 200 µl sterilem Leitungswasser pro Vertiefung versetzt, mit einem Deckel versehen und in einer feuchten Kammer für 4 Tage im Pflanzenbrutschrank inkubiert (16h-Licht-8h-Dunkel-Rhythmus). Die Auswertung des Tests erfolgt optisch (+: mind. 75 % Wachstumshemmung im Vergleich zur Kontrolle, -: weniger als 75 % Wachstumshemmung im Vergleich zur Kontrolle.

[2] = test system: Lepidium sativum; assay: as above; type: in vivo
Procedure: as §1

[3] = test system: Penicillium notatum; assay: Growth test in microtiter plates, HA medium, 24 h, visual evaluation; type: cell-based; design: key: +: kein Wachstum im Vergleich zur Wachstumskontrolle; -: Wachstum wie Wachstumskontrolle
[4] = test system: Mucor miehei; assay: as above; type: cell-based; design: key to Aktivität gegenüber M. miehei: +: kein Wachstum im Vergleich zur Wachstumskontrolle; -: Wachstum wie Wachstumskontrolle
[5] = test system: M. grisea CM; assay: microbe, parasite or virus in culture; type: cell-based, Magnaporthe grisea; details: Pyricularia grisea, 24 h, read-out: Aktivität gegenüber M. grisea CM
[6] = test system: M. grisea H2O; assay: microbe, parasite or virus in culture; type: cell-based, Magnaporthe grisea; details: Pyricularia grisea, H2O, 24 h, read-out: Aktivität gegenüber M. grisea H2O
[7] = test system: Botrytis cinerea; assay: microbe, parasite or virus in culture; type: cell-based; details: for inhibition of growth at 5 µg/mL / inhibition of growth at 10 µg/mL / inhibition of growth at 25 µg/mL / inhibition of growth at 50 µg/mL: Botrytis cinerea, 24 h, read-out: Aktivität gegenüber B. cinerea
[8] = test system: Candida albicans; assay: Growth test in microtiter plates, HA medium, 24 h, visual evaluation; type: cell-based; design: key: +: kein Wachstum im Vergleich zur Wachstumskontrolle; -: Wachstum wie Wachstumskontrolle
[9] = test system: P. infestans; assay: microbe, parasite or virus in culture; type: cell-based, Phytophthora infestans; details: for inhibition of growth at 5 µg/mL / inhibition of growth at 10 µg/mL / inhibition of growth at 25 µg/mL / inhibition of growth at 50 µg/mL: Phytophthora infestans, 24 h, read-out: Aktivität gegenüber P. infestans
[10] = test system: Paecilomyces variotii; assay: Growth test in microtiter plates, HA medium, 24 h, visual evaluation; type: cell-based; design: key: +: kein Wachstum im Vergleich zur Wachstumskontrolle; -: Wachstum wie Wachstumskontrolle

Cc1cc(C)c(O)c([Se]c2c(C)c(C)cc(C)c2O)c1C [Verbindung 17, Bis(2-hydroxy-3,5,6-trimethylphenyl)selen]
Aktivität gegenüber Nutzpflanzen: S. italica ([1]; 10µg/R): - (weniger als 75 % Wachstumshemmung im Vergleich zur Kontrolle)
Aktivität gegenüber Nutzpflanzen: S. italica ([1]; 20µg/R): - (weniger als 75 % Wachstumshemmung im Vergleich zur Kontrolle)
Aktivität gegenüber Nutzpflanzen: S. italica ([1]; 50µg/R): + (mind. 75 % Wachstumshemmung im Vergleich zur Kontrolle)
Aktivität gegenüber Nutzpflanzen: L. sativum ([2]; 10µg/R): - (weniger als 75 % Wachstumshemmung im Vergleich zur Kontrolle)
Aktivität gegenüber Nutzpflanzen: L. sativum ([2]; 20µg/R): - (weniger als 75 % Wachstumshemmung im Vergleich zur Kontrolle)
Aktivität gegenüber Nutzpflanzen: L. sativum ([2]; 50µg/R): - (weniger als 75 % Wachstumshemmung im Vergleich zur Kontrolle)
Aktivität gegenüber P. notatum ([3]; 10µg/mL): -
Aktivität gegenüber P. notatum ([3]; 50µg/mL): -
Aktivität gegenüber M. miehei ([4]; 10µg/mL): -
Aktivität gegenüber M. miehei ([4]; 50µg/mL): -
inhibition of growth at 5 µg/mL [5]: 0 to 25%
inhibition of growth at 10 µg/mL [5]: 0 to 25%
inhibition of growth at 25 µg/mL [5]: 50 to 75%
inhibition of growth at 50 µg/mL [5]: 50 to 75%
inhibition of growth at 5 µg/mL [6]: 0 to 25%
inhibition of growth at 10 µg/mL [6]: 0 to 25%
inhibition of growth at 25 µg/mL [6]: 0 to 25%
inhibition of growth at 50 µg/mL [6]: 0 to 25%
inhibition of growth at 5 µg/mL [7]: 0 to 25%
inhibition of growth at 10 µg/mL [7]: 0 to 25%
inhibition of growth at 25 µg/mL [7]: 0 to 25%
inhibition of growth at 50 µg/mL [7]: 0 to 25%
Aktivität gegenüber C. albicans ([8]; 10µg/mL): -
Aktivität gegenüber C. albicans ([8]; 50µg/mL): -
inhibition of growth at 5 µg/mL [9]: 0 to 25%
inhibition of growth at 10 µg/mL [9]: 25 to 50%
inhibition of growth at 25 µg/mL [9]: 25 to 50%
inhibition of growth at 50 µg/mL [9]: 25 to 50%
Aktivität gegenüber P. variotii ([10]; 10µg/mL): -
Aktivität gegenüber P. variotii ([10]; 50µg/mL): -

Cc1c(Cl)cc(C(C)C)c(O)c1[Se]c1c(C)c(Cl)cc(C(C)C)c1O [Verbindung 21, Bis(3-chlor-6-hydroxy-5-isopropyl-2-methylphenyl)selen]
Aktivität gegenüber Nutzpflanzen: S. italica ([1]; 10µg/R): - (weniger als 75 % Wachstumshemmung im Vergleich zur Kontrolle)
Aktivität gegenüber Nutzpflanzen: S. italica ([1]; 20µg/R): - (weniger als 75 % Wachstumshemmung im Vergleich zur Kontrolle)
Aktivität gegenüber Nutzpflanzen: S. italica ([1]; 50µg/R): - (weniger als 75 % Wachstumshemmung im Vergleich zur Kontrolle)
Aktivität gegenüber Nutzpflanzen: L. sativum ([2]; 10µg/R): - (weniger als 75 % Wachstumshemmung im Vergleich zur Kontrolle)
Aktivität gegenüber Nutzpflanzen: L. sativum ([2]; 20µg/R): - (weniger als 75 % Wachstumshemmung im Vergleich zur Kontrolle)
Aktivität gegenüber Nutzpflanzen: L. sativum ([2]; 50µg/R): - (weniger als 75 % Wachstumshemmung im Vergleich zur Kontrolle)
Aktivität gegenüber P. notatum ([3]; 10µg/mL): -
Aktivität gegenüber P. notatum ([3]; 50µg/mL): -
Aktivität gegenüber M. miehei ([4]; 10µg/mL): -
Aktivität gegenüber M. miehei ([4]; 50µg/mL): -
inhibition of growth at 5 µg/mL [5]: 50 to 75%
inhibition of growth at 10 µg/mL [5]: > 75%
inhibition of growth at 25 µg/mL [5]: > 75%
inhibition of growth at 50 µg/mL [5]: > 75%
inhibition of growth at 5 µg/mL [6]: 25 to 50%
inhibition of growth at 10 µg/mL [6]: > 75%
inhibition of growth at 25 µg/mL [6]: > 75%
inhibition of growth at 50 µg/mL [6]: > 75%
inhibition of growth at 5 µg/mL [7]: 0 to 25%
inhibition of growth at 10 µg/mL [7]: 0 to 25%
inhibition of growth at 25 µg/mL [7]: 0 to 25%
inhibition of growth at 50 µg/mL [7]: 0 to 25%
Aktivität gegenüber C. albicans ([8]; 10µg/mL): -
Aktivität gegenüber C. albicans ([8]; 50µg/mL): -
inhibition of growth at 5 µg/mL [9]: 0 to 25%
inhibition of growth at 10 µg/mL [9]: 0 to 25%
inhibition of growth at 25 µg/mL [9]: 0 to 25%
inhibition of growth at 50 µg/mL [9]: 0 to 25%
Wirksamkeit gegenüber P. infestans [9]: keine Wirkung
Aktivität gegenüber P. variotii ([10]; 10µg/mL): -
Aktivität gegenüber P. variotii ([10]; 50µg/mL): -

Cc1cc(Cl)cc([Se]c2cc(Cl)cc(C)c2O)c1O [Verbindung 22, Bis(3-chlor-6-hydroxy-5-methylphenyl)selen]
Aktivität gegenüber Nutzpflanzen: S. italica ([1]; 10µg/R): - (weniger als 75 % Wachstumshemmung im Vergleich zur Kontrolle)
Aktivität gegenüber Nutzpflanzen: S. italica ([1]; 20µg/R): - (weniger als 75 % Wachstumshemmung im Vergleich zur Kontrolle)
Aktivität gegenüber Nutzpflanzen: S. italica ([1]; 50µg/R): - (weniger als 75 % Wachstumshemmung im Vergleich zur Kontrolle)
Aktivität gegenüber Nutzpflanzen: L. sativum ([2]; 10µg/R): - (weniger als 75 % Wachstumshemmung im Vergleich zur Kontrolle)
Aktivität gegenüber Nutzpflanzen: L. sativum ([2]; 20µg/R): - (weniger als 75 % Wachstumshemmung im Vergleich zur Kontrolle)
Aktivität gegenüber Nutzpflanzen: L. sativum ([2]; 50µg/R): - (weniger als 75 % Wachstumshemmung im Vergleich zur Kontrolle)
Aktivität gegenüber P. notatum ([3]; 10µg/mL): -
Aktivität gegenüber P. notatum ([3]; 50µg/mL): -
Aktivität gegenüber M. miehei ([4]; 10µg/mL): -
Aktivität gegenüber M. miehei ([4]; 50µg/mL): -
inhibition of growth at 5 µg/mL [5]: > 75%
inhibition of growth at 10 µg/mL [5]: > 75%
inhibition of growth at 25 µg/mL [5]: > 75%
inhibition of growth at 50 µg/mL [5]: > 75%
inhibition of growth at 5 µg/mL [6]: > 75%
inhibition of growth at 10 µg/mL [6]: > 75%
inhibition of growth at 25 µg/mL [6]: > 75%
inhibition of growth at 50 µg/mL [6]: > 75%
mikrobizide Wirksamkeit gegenüber B. cinerea [7]: mikrobizide Wirksamkeit
inhibition of growth at 5 µg/mL [7]: > 75%
inhibition of growth at 10 µg/mL [7]: > 75%
inhibition of growth at 25 µg/mL [7]: > 75%
inhibition of growth at 50 µg/mL [7]: > 75%
Aktivität gegenüber C. albicans ([8]; 10µg/mL): -
Aktivität gegenüber C. albicans ([8]; 50µg/mL): -
inhibition of growth at 5 µg/mL [9]: 0 to 25%
inhibition of growth at 10 µg/mL [9]: > 75%
inhibition of growth at 25 µg/mL [9]: > 75%
inhibition of growth at 50 µg/mL [9]: > 75%
Aktivität gegenüber P. variotii ([10]; 10µg/mL): -
Aktivität gegenüber P. variotii ([10]; 50µg/mL): -

Cc1cc(Br)c(O)c([Se]c2cc(C)cc(Br)c2O)c1 [Verbindung 23, Bis(3-brom-2-hydroxy-5-methylphenyl)selen]
Aktivität gegenüber Nutzpflanzen: S. italica ([1]; 10µg/R): - (weniger als 75 % Wachstumshemmung im Vergleich zur Kontrolle)
Aktivität gegenüber Nutzpflanzen: S. italica ([1]; 20µg/R): - (weniger als 75 % Wachstumshemmung im Vergleich zur Kontrolle)
Aktivität gegenüber Nutzpflanzen: S. italica ([1]; 50µg/R): - (weniger als 75 % Wachstumshemmung im Vergleich zur Kontrolle)
Aktivität gegenüber Nutzpflanzen: L. sativum ([2]; 10µg/R): - (weniger als 75 % Wachstumshemmung im Vergleich zur Kontrolle)
Aktivität gegenüber Nutzpflanzen: L. sativum ([2]; 20µg/R): - (weniger als 75 % Wachstumshemmung im Vergleich zur Kontrolle)
Aktivität gegenüber Nutzpflanzen: L. sativum ([2]; 50µg/R): - (weniger als 75 % Wachstumshemmung im Vergleich zur Kontrolle)
Aktivität gegenüber P. notatum ([3]; 10µg/mL): -
Aktivität gegenüber P. notatum ([3]; 50µg/mL): -
Aktivität gegenüber M. miehei ([4]; 10µg/mL): -
Aktivität gegenüber M. miehei ([4]; 50µg/mL): -
inhibition of growth at 5 µg/mL [5]: > 75%
inhibition of growth at 10 µg/mL [5]: > 75%
inhibition of growth at 25 µg/mL [5]: > 75%
inhibition of growth at 50 µg/mL [5]: > 75%
inhibition of growth at 5 µg/mL [6]: 0 to 25%
inhibition of growth at 10 µg/mL [6]: 25 to 50%
inhibition of growth at 25 µg/mL [6]: > 75%
inhibition of growth at 50 µg/mL [6]: > 75%
inhibition of growth at 5 µg/mL [7]: 0 to 25%
inhibition of growth at 10 µg/mL [7]: 0 to 25%
inhibition of growth at 25 µg/mL [7]: 0 to 25%
inhibition of growth at 50 µg/mL [7]: 0 to 25%
Aktivität gegenüber C. albicans ([8]; 10µg/mL): -
Aktivität gegenüber C. albicans ([8]; 50µg/mL): -
inhibition of growth at 5 µg/mL [9]: 0 to 25%
inhibition of growth at 10 µg/mL [9]: 0 to 25%
inhibition of growth at 25 µg/mL [9]: 0 to 25%
inhibition of growth at 50 µg/mL [9]: 0 to 25%
Wirksamkeit gegenüber P. infestans [9]: keine Wirkung
Aktivität gegenüber P. variotii ([10]; 10µg/mL): -
Aktivität gegenüber P. variotii ([10]; 50µg/mL): -
